Holding throughout (assay): MIC, standard broth dilution method in microtitre
Common to all, as to type: cell-based
(In general: Dilution methods test growth across graded concentrations, often in twofold steps.)

Assay [1] concerns erythromycin resistant strains of Streptococcus pyogenes. As to the method:
(§1) Using a standard broth dilution method in microtitre, compounds were tested for antibacterial activity. The compounds in the above examples gave minimum inhibitory concentrations (MICs) less than 1 microgram per millilitre against erythromycin-sensitive and erythromycin-resistant strains of Streptococcus pneumoniae and Streptococcus pyogenes.

Assay [2] has as its system erythromycin resistant strains of Streptococcus pneumoniae. As to the method:
as §1

Assay [3] deals with S. aureus Smith ATCC 13709. Conditions: Staphylococcus aureus, ATCC13709. As to the method: as §1
(§2) In addition, the MIC (μg/mL) of test compounds against various organisms was determined including:
(§3) S. aureus Smith ATCC 13709, S. pneumoniae SP030, S. pyogenes 3565, E. faecalis ATCC 29212, H. influenzae ATCC 49247, M. catarrhalis ATCC 23246.

Another assay concerns S. pyogenes 3565. Conditions: Streptococcus pyogenes. The method, then: as §1, §2, §3
Another assay concerns S. pneumoniae SP030. Particulars: Streptococcus pneumoniae. The method, then:
as §1, §2, §3

For a further assay, the system named is H. influenzae ATCC 49247. Particulars: Haemophilus influenzae, ATCC49247; H. influenzae ATCC 49247; broth dilution in microtitre; read-out: MIC. As to the method: as §1, §2, §3
Assay [4] has as its system M. catarrhalis ATCC 23246. Particulars: Moraxella catarrhalis, ATCC23246. As to the method:
as §1, §2, §3

The next assay deals with E. faecalis ATCC 29212. Conditions: Enterococcus faecalis, ATCC29212. The method, then:
as §1, §2, §3

Turning to `CC[C@H]1OC(=O)[C@H](C)[C@@H](O[C@H]2C[C@@](C)(OC)[C@@H](OC(=O)CCOCCNc3cc4c(=O)c(C(=O)O)cn(C5CC5)c4cc3Cl)[C@H](C)O2)[C@H](C)[C@@H](O[C@@H]2O[C@H](C)C[C@H](N(C)C)[C@H]2O)[C@](C)(O)C[C@@H](C)CN(C)[C@H](C)[C@@H](OC)[C@]1(C)O` [Example 23, 4″-O-{3-[2-(3-Carboxy-7-chloro-1-cyclopropyl-4-oxo-1,4-dihydro-6-quinolinylamino)ethoxy]propionyl}-11-O-methyl-azithromycin], the MIC in assay [1] was at most 0.25 µg/mL; in assay [2] it was at most 0.25 µg/mL; in assay [3] it was at most 1 µg/mL; against S. pyogenes 3565, at most 1 µg/mL; in the assay on S. pneumoniae SP030 it was at most 1 µg/mL; in the assay with H. influenzae ATCC 49247 it was at most 2 µg/mL. In addition, the MIC in assay [4] was at most 2 µg/mL; against E. faecalis ATCC 29212, at most 1 µg/mL.

For `CC[C@H]1OC(=O)[C@H](C)[C@@H](O[C@H]2C[C@@](C)(OC)[C@@H](OC(=O)CCOCCOc3cc4c(=O)c(C(=O)O)cn(C5CC5)c4cc3Cl)[C@H](C)O2)[C@H](C)[C@@H](O[C@@H]2O[C@H](C)C[C@H](N(C)C)[C@H]2O)[C@](C)(O)C[C@@H](C)CN(C)[C@H](C)[C@@H](O)[C@]1(C)O` [Example 27, 4″-O-{3-[2-(3-Carboxy-7-chloro-1-cyclopropyl-4-oxo-1,4-dihydro-quinolin-6-yloxy)ethoxy]-propionyl}-azithromycin], the MIC was at most 0.25 µg/mL in assay [1]; at most 0.25 µg/mL in assay [2]; at most 1 µg/mL in assay [3]; at most 1 µg/mL in the assay with S. pyogenes 3565; at most 1 µg/mL with S. pneumoniae SP030; at most 2 µg/mL in the assay with H. influenzae ATCC 49247. The values for the MIC (in assay [4]; in the assay with E. faecalis ATCC 29212) were at most 2 µg/mL and at most 1 µg/mL, respectively.

Turning to `CC[C@H]1OC(=O)[C@H](C)[C@@H](O[C@H]2C[C@@](C)(OC)[C@@H](OC(=O)CCOCCOc3ccc4c(c3)c(=O)c(C(=O)O)cn4C3CC3)[C@H](C)O2)[C@H](C)[C@@H](O[C@@H]2O[C@H](C)C[C@H](N(C)C)[C@@H]2O)[C@](C)(O)C[C@@H](C)CN(C)[C@H](C)[C@@H](O)[C@]1(C)O` [Example 29, 4″-O-{3-[2-(3-Carboxy-1-cyclopropyl-4-oxo-1,4-dihydro-quinolin-6-yloxy)-ethoxy]-propionyl}-azithromycin], the MIC is at most 0.25 µg/mL in assay [1]; at most 0.25 µg/mL in assay [2]; at most 1 µg/mL in assay [3]; at most 1 µg/mL in the assay with S. pyogenes 3565; at most 1 µg/mL against S. pneumoniae SP030; at most 2 µg/mL in the assay on H. influenzae ATCC 49247. The MIC was at most 2 µg/mL in assay [4] and at most 1 µg/mL against E. faecalis ATCC 29212.
